{"source": "paper PMC7077750", "about": "(Journal of medicinal chemistry, 2020)", "key": {"[1]": {"tested_on": "C57BL/6 mice", "assay": "Triad assessment: body temperature", "conditions": "0.1, 1, 3, or 10 mg/kg (i.p.); 15 min; vs vehicle"}, "[2]": {"tested_on": "C57BL/6 mice", "assay": "Triad assessment: catalepsy", "conditions": "0.1, 1, 3, or 10 mg/kg (i.p.); 5 min; vs vehicle"}, "[3]": {"tested_on": "ocular hypertensive NEE mice", "assay": "Intraocular pressure in ocular hypertensive NEE mice", "conditions": "topical 0.2% 9j alone"}, "[4]": {"tested_on": "autaptic hippocampal neurons", "assay": "Electrophysiology in autaptic hippocampal neurons", "conditions": "after 9j treatment"}, "[5]": {"biological_target": "GFP-rCB1R (Rattus norvegicus, UniProt P20272)", "sequence (P20272 whole entry)": "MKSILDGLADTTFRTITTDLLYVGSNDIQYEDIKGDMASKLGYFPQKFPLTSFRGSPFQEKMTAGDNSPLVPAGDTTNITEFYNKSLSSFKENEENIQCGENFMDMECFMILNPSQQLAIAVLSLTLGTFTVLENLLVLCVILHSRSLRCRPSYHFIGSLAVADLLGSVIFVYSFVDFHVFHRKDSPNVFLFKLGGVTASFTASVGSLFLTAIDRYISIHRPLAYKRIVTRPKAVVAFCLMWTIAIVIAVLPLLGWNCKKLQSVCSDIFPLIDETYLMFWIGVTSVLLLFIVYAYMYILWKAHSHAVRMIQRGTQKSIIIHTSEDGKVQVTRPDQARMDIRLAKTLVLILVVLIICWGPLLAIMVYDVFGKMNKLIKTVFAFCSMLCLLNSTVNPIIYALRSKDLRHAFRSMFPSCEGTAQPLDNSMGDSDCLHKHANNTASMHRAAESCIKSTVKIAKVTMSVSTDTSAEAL", "assay": "cAMP inhibition", "assay_type": "cell-based", "conditions": "for ΔEC50 / ΔEMax: difference between CP55,940 alone and maximal concentration of GAT compound"}, "[6]": {"tested_on": "CFA-induced mechanical allodynia", "assay": "CFA-induced inflammatory nociception, mechanical allodynia", "assay_type": "in vivo, mouse", "conditions": "for mechanical paw withdrawal threshold at 30 min post-injection: CFA-injected paw; for mechanical paw withdrawal threshold at 30 min post-injection / anti-allodynic efficacy at 4 h post injection: vs vehicle; for duration of efficacy post injection / suppression of CFA-induced mechanical allodynia in CB1KO mice: ipsilateral paw; for paw withdrawal thresholds in the contralateral paw: 0.1-30 mg/kg i.p.; for doses that elevated mechanical paw withdrawal thresholds relative to vehicle: CFA-injected (ipsilateral) paw, WT mice"}, "[7]": {"tested_on": "C57BL/6 mice", "assay": "Triad assessment: warm water tail-flick test", "conditions": "0.1-10 mg/kg i.p.; 20 min; significant vs vehicle at 3 and 10 mg/kg"}, "[8]": {"biological_target": "T1, hCB1R (Homo sapiens, UniProt P21554)", "T1 sequence (P21554 whole entry)": "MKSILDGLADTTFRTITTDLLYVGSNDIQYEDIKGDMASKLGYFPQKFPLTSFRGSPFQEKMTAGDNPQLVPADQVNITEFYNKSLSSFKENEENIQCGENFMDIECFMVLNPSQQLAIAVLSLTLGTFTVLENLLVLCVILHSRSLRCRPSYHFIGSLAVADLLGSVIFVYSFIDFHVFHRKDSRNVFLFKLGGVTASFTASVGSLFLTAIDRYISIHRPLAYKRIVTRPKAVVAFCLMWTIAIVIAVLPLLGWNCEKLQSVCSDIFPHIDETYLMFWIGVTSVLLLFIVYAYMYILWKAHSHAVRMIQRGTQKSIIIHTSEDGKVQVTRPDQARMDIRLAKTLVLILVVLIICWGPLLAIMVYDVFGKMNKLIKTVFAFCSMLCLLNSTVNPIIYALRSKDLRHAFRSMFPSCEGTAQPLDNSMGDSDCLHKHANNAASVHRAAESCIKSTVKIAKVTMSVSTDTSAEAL", "assay": "DiscoveRx HitHunter cAMP inhibition assay", "conditions": "for PAM bias between cAMP inhibition and βarrestin2 recruitment (ΔΔLogR): 100 nM CP55,940 as agonist; for PAM bias between cAMP inhibition and βarrestin2 recruitment (ΔΔLogR) / agonist bias between cAMP inhibition and βarrestin2 recruitment (ΔΔLogR): 90 min, operational model; for agonist bias between cAMP inhibition and βarrestin2 recruitment (ΔΔLogR): GAT compound alone"}, "[9]": {"biological_target": "T1, hCB1R", "assay": "DiscoveRx PathHunter βarrestin2 recruitment assay", "conditions": "for concentrations promoting CP55,940-dependent βarrestin2 recruitment: 100 nM CP55,940, 90 min"}, "[10]": {"assay": "physchem", "conditions": "pH 7.4"}, "[11]": {"tested_on": "CFA-induced mechanical allodynia", "conditions": "same CFA model; cited from earlier work"}, "[12]": {"tested_on": "normotensive C57Bl/6J mice", "conditions": "cited from earlier work"}, "[13]": {"tested_on": "C57BL/6 mice", "conditions": "orthosteric agonist at 10 mg/kg; cited from earlier work"}, "[14]": {"tested_on": "C57BL/6 mice", "conditions": "orthosteric agonist at 10 mg/kg; cited from earlier work", "remark": "listed apart in the source"}}, "note": "Like-named read-outs stand apart in the source and are kept apart here."}
{"smiles": "O=[N+]([O-])CC(c1ncccc1F)c1c(-c2ccccc2)[nH]c2ccccc12", "note": "(centres unmarked) [Compound 9j, 3-(1-(3-Fluoropyridin-2-yl)-2-nitroethyl)-2-phenyl-1H-indole]", "values": [{"measurement": "hypothermia", "setting": "[1]", "result": "did not produce catalepsy or hypothermia"}, {"measurement": "catalepsy", "setting": "[2]", "result": "did not produce catalepsy"}, {"measurement": "change in IOP from baseline, 1 hour", "setting": "[3]; 1 h", "result": "−2.5 ± 1", "unit": "mmHg"}, {"measurement": "change in IOP from baseline, 6 hours", "setting": "[3]; 6 h", "result": "−3.6 ± 1", "unit": "mmHg"}, {"measurement": "IOP decrease at 12 hours", "setting": "[3]; 12 h", "result": "no longer present"}, {"measurement": "DSE response", "setting": "[4]", "result": "DSE was enhanced"}]}
{"smiles": "O=[N+]([O-])CC(c1ccccc1F)c1c(-c2cccc(F)c2)[nH]c2c(F)cccc12", "note": "(centres unmarked) [Compound 6s, 7-Fluoro-2-(3-fluorophenyl)-3-(1-(2-fluorophenyl)-2-nitroethyl)-1H-indole]", "values": [{"measurement": "ΔEC50", "setting": "[5]", "result": "-12 ± 8.0", "unit": "nM"}, {"measurement": "ΔEMax", "setting": "[5]", "result": "67 ± 15", "unit": "% Forskolin"}, {"measurement": "antinociceptive efficacy compared with 6r at […] post injection", "setting": "[6]; 30 mg/kg i.p.", "result": "greater antinociceptive efficacy than 6r"}, {"measurement": "mechanical paw withdrawal threshold at 30 min post-injection", "setting": "[6]; 30 mg/kg i.p.", "result": "increased mechanical paw withdrawal threshold"}, {"measurement": "duration of efficacy post injection", "setting": "[6]; 30 mg/kg i.p.", "result": "at least 2.5 h"}, {"measurement": "suppression of CFA-induced mechanical allodynia in CB1KO mice", "setting": "[6]; 30 mg/kg i.p.", "result": "Neither"}, {"measurement": "anti-allodynic efficacy at 4 h post injection", "setting": "[6]; 30 mg/kg i.p.", "result": "no longer present"}, {"measurement": "paw withdrawal thresholds in the contralateral paw", "setting": "[6]", "result": "without altering paw withdrawal thresholds in the contralateral paw"}, {"measurement": "doses that elevated mechanical paw withdrawal thresholds relative to vehicle", "setting": "[6]; i.p.", "result": "3 to 30", "unit": "mg/kg"}, {"measurement": "hypothermia", "setting": "[1]", "result": "did not produce catalepsy or hypothermia"}, {"measurement": "anti-nociceptive effect in the tail flick assay", "setting": "[7]", "result": "dose-dependent anti-nociceptive effect"}, {"measurement": "catalepsy", "setting": "[2]", "result": "did not produce catalepsy"}, {"measurement": "PAM bias between cAMP inhibition and βarrestin2 recruitment (ΔΔLogR)", "setting": "[8]", "result": "display bias toward cAMP inhibition"}, {"measurement": "agonist bias between cAMP inhibition and βarrestin2 recruitment (ΔΔLogR)", "setting": "[8]", "result": "agonist bias toward cAMP inhibition"}, {"measurement": "concentrations promoting CP55,940-dependent βarrestin2 recruitment", "setting": "[9]", "result": "≥ 3.5", "unit": "µM"}]}
{"smiles": "O=[N+]([O-])CC(c1cccnc1)c1c(-c2ccccc2)[nH]c2ccccc12", "note": "(centres unmarked) [Compound 9b, 3-(2-Nitro-1-(pyridin-3-yl)ethyl)-2-phenyl-1H-indole]", "values": [{"measurement": "solubility thermodynamic", "setting": "[10]", "result": 0.4, "unit": "µg/mL"}]}
{"smiles": "O=[N+]([O-])CC(c1ccccc1F)c1c(-c2cccc(F)c2)[nH]c2cc(F)ccc12", "note": "(centres unmarked) [Compound 6r, 6-Fluoro-2-(3-fluorophenyl)-3-(1-(2-fluorophenyl)-2-nitroethyl)-1H-indole]", "values": [{"measurement": "ΔEC50", "setting": "[5]", "result": "-12 ± 5.7", "unit": "nM"}, {"measurement": "ΔEMax", "setting": "[5]", "result": "68 ± 4.3", "unit": "% Forskolin"}, {"measurement": "mechanical paw withdrawal threshold at 30 min post-injection", "setting": "[6]; 30 mg/kg i.p.", "result": "increased mechanical paw withdrawal threshold"}, {"measurement": "duration of efficacy post injection", "setting": "[6]; 30 mg/kg i.p.", "result": "at least 2.5 h"}, {"measurement": "suppression of CFA-induced mechanical allodynia in CB1KO mice", "setting": "[6]; 30 mg/kg i.p.", "result": "Neither"}, {"measurement": "anti-allodynic efficacy at 4 h post injection", "setting": "[6]; 30 mg/kg i.p.", "result": "no longer present"}, {"measurement": "paw withdrawal thresholds in the contralateral paw", "setting": "[6]", "result": "without altering paw withdrawal thresholds in the contralateral paw"}, {"measurement": "dose that maximally suppressed CFA-induced inflammatory pain", "setting": "[6]; i.p.", "result": 30, "unit": "mg/kg"}, {"measurement": "doses that elevated mechanical paw withdrawal thresholds relative to vehicle", "setting": "[6]; i.p.", "result": "3 to 30", "unit": "mg/kg"}, {"measurement": "hypothermia", "setting": "[1]", "result": "did not produce catalepsy or hypothermia"}, {"measurement": "anti-nociceptive effect in the tail flick assay", "setting": "[7]", "result": "dose-dependent anti-nociceptive effect"}, {"measurement": "catalepsy", "setting": "[2]", "result": "did not produce catalepsy"}, {"measurement": "PAM bias between cAMP inhibition and βarrestin2 recruitment (ΔΔLogR)", "setting": "[8]", "result": "display bias toward cAMP inhibition"}, {"measurement": "agonist bias between cAMP inhibition and βarrestin2 recruitment (ΔΔLogR)", "setting": "[8]", "result": "agonist bias toward cAMP inhibition"}, {"measurement": "concentrations promoting CP55,940-dependent βarrestin2 recruitment", "setting": "[9]", "result": "≥ 0.19", "unit": "µM"}]}
{"smiles": "CCCCCCC(C)(C)c1ccc([C@@H]2C[C@H](O)CC[C@H]2CCCO)c(O)c1", "note": "[CP55,940, reference compound]", "values": [{"measurement": "CP55,940 EMax, Vehicle (0)", "setting": "[5]; CP55,940 without GAT compound, upper plateau", "result": "100 ± 6.4", "unit": "% Forskolin"}, {"measurement": "Standard agonist EMax, HitHunter cAMP", "setting": "[8]; standard agonist alone", "result": "1.5 ± 0.07", "unit": "fold over baseline"}, {"measurement": "Standard agonist EMax, PathHunter βarrestin2", "setting": "[9]; standard agonist alone", "result": "8.0 ± 1.3", "unit": "fold over baseline"}]}
{"smiles": "O=[N+]([O-])CC(c1ccccc1)c1c(-c2ccccc2)[nH]c2ccncc12", "note": "(centres unmarked) [Compound 9g, 3-(2-Nitro-1-phenylethyl)-2-phenyl-1H-pyrrolo[3,2-c]pyridine]", "values": [{"measurement": "solubility thermodynamic", "setting": "[10]", "result": 8.1, "unit": "µg/mL"}]}
{"smiles": "O=[N+]([O-])CC(c1ccccc1)c1c(-c2ccccc2)[nH]c2ccccc12", "note": "(centres unmarked) [Compound 6d, 3-(2-Nitro-1-phenylethyl)-2-phenyl-1H-indole]", "values": [{"measurement": "anti-allodynic efficacy at 1.5 h", "setting": "[11]", "result": "present"}, {"measurement": "anti-allodynic efficacy at […] post injection", "setting": "[11]", "result": "absent"}, {"measurement": "time of maximal anti-allodynic efficacy post-injection", "setting": "[11]", "result": 30, "unit": "min"}, {"measurement": "Emax", "setting": "[8]; read-out: cAMP EMax, PAM activity, CP55,940 at EC20 + analog, 30 min, mean ± SEM", "result": "110 ± 6.8", "unit": "%"}]}
{"smiles": "Cc1c(C(=O)c2cccc3ccccc23)c2cccc3c2n1[C@H](CN1CCOCC1)CO3", "note": "[WIN]", "values": [{"measurement": "effect on IOP", "setting": "[12]; topical 1% WIN", "result": "decreases IOP"}, {"measurement": "effect on IOP", "setting": "[12]; topical WIN […] (subthreshold)", "result": "does not affect IOP"}]}
{"smiles": "O=[N+]([O-])CC(c1ccccc1)c1c(-c2cccnc2)[nH]c2ccccc12", "note": "(centres unmarked) [Compound 9d, 3-(2-Nitro-1-phenylethyl)-2-(pyridin-3-yl)-1H-indole]", "values": [{"measurement": "solubility thermodynamic", "setting": "[10]", "result": 1.7, "unit": "µg/mL"}]}
{"smiles": "O=[N+]([O-])CC(c1ccccn1)c1c(-c2ccccc2)[nH]c2ccccc12", "note": "(centres unmarked) [Compound 9a, 3-(2-Nitro-1-(pyridin-2-yl)ethyl)-2-phenyl-1H-indole]", "values": [{"measurement": "solubility thermodynamic at 24 h", "setting": "[10]", "result": 1, "unit": "µg/mL"}]}
{"smiles": "O=[N+]([O-])CC(c1ccccc1)c1c(-c2ccncc2)[nH]c2ccccc12", "note": "(centres unmarked) [Compound 9e, 3-(2-Nitro-1-phenylethyl)-2-(pyridin-4-yl)-1H-indole]", "values": [{"measurement": "solubility thermodynamic", "setting": "[10]", "result": 0.7, "unit": "µg/mL"}]}
{"smiles": "O=[N+]([O-])CC(c1ccccc1)c1c(-c2ccccc2)[nH]c2cnccc12", "note": "(centres unmarked) [Compound 9h, 3-(2-Nitro-1-phenylethyl)-2-phenyl-1H-pyrrolo[2,3-c]pyridine]", "values": [{"measurement": "solubility thermodynamic", "setting": "[10]", "result": 2.3, "unit": "µg/mL"}]}
{"smiles": "O=[N+]([O-])CC(c1ccncc1)c1c(-c2ccccc2)[nH]c2ccccc12", "note": "(centres unmarked) [Compound 9c, 3-(2-Nitro-1-(pyridin-4-yl)ethyl)-2-phenyl-1H-indole]", "values": [{"measurement": "solubility thermodynamic", "setting": "[10]", "result": 12.6, "unit": "µg/mL"}]}
{"smiles": "O=[N+]([O-])CC(c1ccccc1)c1c(-c2ccccc2)[nH]c2ncccc12", "note": "(centres unmarked) [Compound 9i, 3-(2-Nitro-1-phenylethyl)-2-phenyl-1H-pyrrolo[2,3-b]pyridine]", "values": [{"measurement": "solubility thermodynamic", "setting": "[10]", "result": 54.6, "unit": "µg/mL"}]}
{"smiles": "CCCCCc1cc(O)c2c(c1)OC(C)(C)[C@@H]1CCC(C)=C[C@@H]21", "note": "[THC, Δ[9]-tetrahydrocannabinol]", "values": [{"measurement": "catalepsy", "setting": "[13]", "result": "significant catalepsy"}, {"measurement": "hypothermic effects", "setting": "[14]", "result": "hypothermic effects"}]}
{"smiles": "O=[N+]([O-])CC(c1ccccc1)c1c(-c2ccccc2)[nH]c2cccnc12", "note": "(centres unmarked) [Compound 9f, 3-(2-Nitro-1-phenylethyl)-2-phenyl-1H-pyrrolo[3,2-b]pyridine]", "values": [{"measurement": "solubility thermodynamic", "setting": "[10]", "result": 3.8, "unit": "µg/mL"}]}
